# Assay results reported in patent US9394329B2, “Glucopyranosyl derivatives and their uses in medicine” (Sunshine Lake Pharma Co., Ltd., priority 2013, dated 2016).
# Experiments:
# SGLT-1 = target: T1, SGLT-1 (Homo sapiens, UniProt P13866); experiment: SGLT-1 activity measurement ([14C]-AMG uptake in CHO cells expressing human SGLT1); format: cell-based; details: CHO cells expressing human SGLT1, 0.5 μm [14C]-AMG, 37° C. for 1 hour
# T1 construct: expressed in transfected cells
# T1 sequence (P13866 1-664): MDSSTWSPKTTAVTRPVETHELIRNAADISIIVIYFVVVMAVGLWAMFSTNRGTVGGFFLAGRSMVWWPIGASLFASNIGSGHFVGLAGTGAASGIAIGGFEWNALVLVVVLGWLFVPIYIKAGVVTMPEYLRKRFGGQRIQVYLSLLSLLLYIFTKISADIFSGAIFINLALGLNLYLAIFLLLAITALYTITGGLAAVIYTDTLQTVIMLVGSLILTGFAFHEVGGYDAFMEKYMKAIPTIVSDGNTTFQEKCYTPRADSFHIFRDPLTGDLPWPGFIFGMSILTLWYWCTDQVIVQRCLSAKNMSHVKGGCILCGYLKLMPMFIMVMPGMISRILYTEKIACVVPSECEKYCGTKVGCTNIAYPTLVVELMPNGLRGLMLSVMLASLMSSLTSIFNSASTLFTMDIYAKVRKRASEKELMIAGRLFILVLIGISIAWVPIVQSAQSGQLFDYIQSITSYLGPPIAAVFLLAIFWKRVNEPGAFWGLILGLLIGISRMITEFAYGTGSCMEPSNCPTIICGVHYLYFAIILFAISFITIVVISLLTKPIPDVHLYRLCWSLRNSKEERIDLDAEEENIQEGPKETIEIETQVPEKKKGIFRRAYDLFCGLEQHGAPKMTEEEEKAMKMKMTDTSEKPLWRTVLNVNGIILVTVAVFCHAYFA
# Source text: (§1) The following methods can be used to determine the inhibitory activity of the compounds described in the invention for SGLT-1 and SGLT-2.
# (§2) ^14C-AMG solution was purchased from PerkinElmer, Cat. No. NEZ080001MC.
# (§3) α-Methylglucoside was purchased from Sigma, Cat. No. M9376-100G.
# (§4) N-methyl-D-glucosamine was purchased from Sigma, Cat. No. M2004-100G.
# (§5) Phloridzin was purchased from Sigma, Cat. No. P3449-1G.
# (§6) 96-Well plate was purchased from Corning, Cat. No. 3903.
# (§7) Mock-transfected FIP-in CHO cells (3×10^4 cells) and expressing human SGLT1/SGLT2 CHO cells were seeded into 96-well plates respectively. The cells were incubated for 12 hours. Each well of the 96-well plates was washed with 150 μL of sodium-free buffer once. To each well was added 50 μL of sodium-containing buffer containing test compounds having different concentrations and […] [^14C]-AMG. The incubation mixture was incubated at 37° C. for 1 hour. To each well was added 150 μL of precooled sodium-free buffer to terminate the reaction. The cell pellet was washed with sodium-free buffer three times and the residual liquid in well was removed. To each well was added 20 μL of precooled 100 mM NaOH. The 96-well plates were vibrated at 900 rpm for 5 minutes. Scintillation fluid (80 μL) was added to each well which was then vibrated at 600 rpm for 5 minutes. The amount of ^14C-AMG was quantitatively detected using liquid scintillation.
# SGLT-2 = target: T2, SGLT-2 (Homo sapiens, UniProt P31639); experiment: SGLT-2 activity measurement ([14C]-AMG uptake in CHO cells expressing human SGLT2); format: cell-based; details: CHO cells expressing human SGLT2, 0.5 μm [14C]-AMG, 37° C. for 1 hour
# T2 construct: expressed in transfected cells
# T2 sequence (P31639 1-672): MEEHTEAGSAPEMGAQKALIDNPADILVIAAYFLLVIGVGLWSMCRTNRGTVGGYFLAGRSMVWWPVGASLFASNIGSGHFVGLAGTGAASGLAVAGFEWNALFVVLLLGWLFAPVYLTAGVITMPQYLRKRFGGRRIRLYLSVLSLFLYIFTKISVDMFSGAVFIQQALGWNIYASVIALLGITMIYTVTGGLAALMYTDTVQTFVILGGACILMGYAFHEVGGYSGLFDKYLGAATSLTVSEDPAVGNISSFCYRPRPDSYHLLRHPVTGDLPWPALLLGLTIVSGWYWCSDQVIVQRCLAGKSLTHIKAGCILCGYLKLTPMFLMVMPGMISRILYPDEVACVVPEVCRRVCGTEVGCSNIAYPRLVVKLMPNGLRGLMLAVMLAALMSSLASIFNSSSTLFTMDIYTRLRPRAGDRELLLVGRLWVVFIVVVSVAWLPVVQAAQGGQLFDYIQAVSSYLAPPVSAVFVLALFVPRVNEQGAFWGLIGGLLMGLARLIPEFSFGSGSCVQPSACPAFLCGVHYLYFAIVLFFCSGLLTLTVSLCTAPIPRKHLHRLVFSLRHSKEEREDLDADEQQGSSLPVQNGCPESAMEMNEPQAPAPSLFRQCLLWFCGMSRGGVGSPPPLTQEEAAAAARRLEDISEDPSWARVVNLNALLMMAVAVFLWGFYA
# Source text: as §1, §2, §3, §4, §5, §6, §7
IC50 (SGLT-1),IC50 (SGLT-2),SMILES
260 nM,1.65 nM,"CCOc1ccc(Cc2cc([C@]34OC[C@](C(C)O)(O3)[C@@H](O)[C@H](O)[C@H]4O)ccc2Cl)cc1 (stereo partly drawn) [Example 1, (1R,2S,3S,4R,5S)-5-[4-Chloro-3-[(4-ethoxyphenyl)methyl]phenyl]-1-(1-hydroxyethyl)-6,8-dioxabicyclo[3.2.1]octane-2,3,4-triol]"
350 nM,3.66 nM,"CC(C)(O)[C@@]12CO[C@@](c3ccc(Cl)c(Cc4ccc(OCC(F)(F)F)cc4)c3)(O1)[C@H](O)[C@@H](O)[C@@H]2O [Example 18, (1S,2S,3S,4R,5S)-5-[4-Chloro-3-[[4-(2,2,2-trifluoroethoxyl)phenyl]methyl]phenyl]-1-(1-hydroxy-1-methyl-ethyl)-6,8-dioxabicyclo[3.2.1]octane-2,3,4-triol]"
–,4.96 nM,"CCOc1ccc(Cc2cc([C@]34OC[C@](C(O)CO)(O3)[C@@H](O)[C@H](O)[C@H]4O)ccc2Cl)cc1 (stereo partly drawn) [Example 7, (1R,2S,3S,4R,5S)-5-[4-Chloro-3-[(4-ethoxyphenyl)methyl]phenyl]-1-(1,2-dihydroxyethyl)-6,8-dioxabicyclo[3.2.1]octane-2,3,4-triol]"
3760 nM,44.1 nM,"CCOc1ccc(Cc2cc([C@]34OC[C@](C(C)OC(=O)OC(C)C)(O3)[C@@H](O)[C@H](O)[C@H]4O)ccc2Cl)cc1 (stereo partly drawn) [Example 13, 1-[(1S,3S,4R,5S)-5-[4-Chloro-3-[(4-ethoxyphenyl)methyl]phenyl]-2,3,4-trihydroxy-6,8-dioxabicyclo[3.2.1]octan-1-yl]ethyl isopropyl carbonate]"
290 nM,1.96 nM,"CC(O)[C@@]12CO[C@@](c3ccc(Cl)c(Cc4ccc(OC(F)(F)F)cc4)c3)(O1)[C@H](O)[C@@H](O)[C@@H]2O (stereo partly drawn) [Example 15, (1R,2S,3S,4R,5S)-5-[4-chloro-3-[[4-(trifluoromethoxy)phenyl]methyl]phenyl]-1-(1-hydroxyethyl)-6,8-dioxabicyclo[3.2.1]octane-2,3,4-triol]"
–,9.8 nM,"CCOc1ccc(Cc2cc([C@]34OCC(C(O)CC)(O3)[C@@H](O)[C@H](O)[C@H]4O)ccc2Cl)cc1 (stereo in doubt) [Example 3, (1S,2S,3S,4R,5S)-5-[4-Chloro-3 [(4-ethoxyphenyl)methyl]phenyl]-1-(1-hydroxypropyl)-6,8-dioxabicyclo[3.2.1]octane-2,3,4-triol]"
840 nM,–,"CC#CC(O)[C@@]12CO[C@@](c3ccc(Cl)c(Cc4ccc(OCC)cc4)c3)(O1)[C@H](O)[C@@H](O)[C@@H]2O (stereo partly drawn) [Example 5, (1R,2S,3S,4R,5S)-5-[4-chloro-3 [(4-ethoxyphenyl)methyl]phenyl]-1-(1-hydroxybut-2-ynyl)-6,8-dioxabicyclo[3.2.1]octane-2,3,4-triol]"
26800 nM,3.6 nM,"CCOc1ccc(Cc2cc([C@]34OC[C@](C5(O)CC5)(O3)[C@@H](O)[C@H](O)[C@H]4O)ccc2Cl)cc1 [Example 6, (1S,2S,3S,4R,5S)-5-[4-Chloro-3 [(4-ethoxyphenyl)methyl]phenyl]-1-(1-hydroxycyclopropyl)-6,8-dioxabicyclo[3.2.1]octane-2,3,4-triol]"
–,12.1 nM,"CCOc1ccc(Cc2cccc([C@]34OC[C@](C(C)O)(O3)[C@@H](O)[C@H](O)[C@H]4O)c2)cc1 (stereo partly drawn) [Example 30, (1R,2S,3S,4R,5S)-5-[3-[(4-Ethoxyphenyl)methyl]phenyl]-1-(1-hydroxyethyl)-6,8-dioxabicyclo[3.2.1]octane-2,3,4-triol]"
180 nM,1.27 nM,"CCOc1ccc(Cc2cc([C@]34OC[C@](C(C)O)(O3)[C@@H](O)[C@H](O)[C@H]4O)ccc2Cl)cc1F (stereo partly drawn) [Example 19, (1R,2S,3S,4R,5S)-5-[4-chloro-3-[(4-ethoxy-3-fluoro-phenyl)methyl]phenyl]-1-(1-hydroxyethyl)-6,8-dioxabicyclo[3.2.1]octane-2,3,4-triol]"
–,12.7 nM,"CCOC(=O)OC(C)[C@@]12CO[C@@](c3ccc(Cl)c(Cc4ccc(OCC)cc4)c3)(O1)[C@H](O)[C@@H](O)[C@@H]2O (stereo partly drawn) [Example 12, 1-[(1S,2S,3S,4R,5S)-5-[4-Chloro-3-[(4-ethoxyphenyl)methyl]phenyl]-2,3,4-trihydroxy-6,8-dioxabicyclo[3.2.1]octan-1-yl]ethyl ethyl carbonate]"
4210 nM,9.39 nM,"C#CC(O)C12CO[C@@](c3ccc(Cl)c(Cc4ccc(OCC)cc4)c3)(O1)[C@H](O)[C@@H](O)[C@@H]2O (stereo in doubt) [Example 4, (1S,2S,3S,4R,5S)-5-[4-Chloro-3 [(4-ethoxyphenyl)methyl]phenyl]-1-(1-hydroxyprop-2-yn-1-yl)-6,8-dioxabicyclo[3.2.1]octane-2,3,4-triol]"
–,3730 nM,"CCOc1ccc(Cc2cc([C@]34OC[C@](C(O)CN)(O3)[C@@H](O)[C@H](O)[C@H]4O)ccc2Cl)cc1 (stereo partly drawn) [Example 10, (1R,2S,3S,4R,5S)-1-(2-Amino-1-hydroxy-ethyl)-5-[4-chloro-3-[(4-ethoxyphenyl)methyl]phenyl]-6,8-dioxabicyclo[3.2.1]octane-2,3,4-triol]"
–,51.8 nM,"CCOc1ccc(Cc2cc([C@]34OC(C)[C@](CO)(O3)[C@@H](O)[C@H](O)[C@H]4O)ccc2Cl)cc1 (stereo partly drawn) [Example 8, (1R,2S,3S,4R,5S)-5-[4-Chloro-3-[(4-ethoxyphenyl)methyl]phenyl]-1-(hydroxymethyl)-7-methyl-6,8-dioxabicyclo[3.2.1]octane-2,3,4-triol]"
–,2.19 nM,"CCOc1ccc(Cc2cc([C@]34OC[C@](C(C)(C)O)(O3)[C@@H](O)[C@H](O)[C@H]4O)ccc2Cl)c(F)c1F [Example 24, (1S,2S,3S,4R,5S)-5-[4-Chloro-3-[(4-ethoxy-2,3-difluoro-phenyl)methyl]phenyl]-1-(1-hydroxy-1-methyl-ethyl)-6,8-dioxabicyclo[3.2.1]octane-2,3,4-triol]"
–,13.8 nM,"CCOc1ccc(Cc2cc([C@]34OC[C@](C5CNC(=O)O5)(O3)[C@@H](O)[C@H](O)[C@H]4O)ccc2Cl)cc1 (stereo partly drawn) [Example 27, 5-((1S,2S,3S,4R,5S)-5-(4-Chloro-3-(4-ethoxybenzyl)phenyl)-2,3,4-trihydroxy-6,8-dioxabicyclo[3.2.1]octan-1-yl)oxazolidin-2-one]"
–,6.85 nM,"CCOc1ccc(Cc2cc([C@]34OC[C@](C5CO5)(O3)[C@@H](O)[C@H](O)[C@H]4O)ccc2Cl)cc1 (stereo partly drawn) [Example 26, (1S,2S,3S,4R,5S)-5-[4-chloro-3-[(4-ethoxyphenyl)methyl]phenyl]-1-(oxiran-2-yl)-6,8-dioxabicyclo[3.2.1]octane-2,3,4-triol]"
–,1.46 nM,"CCOc1ccc(C(O)c2cc([C@]34OC[C@](C(C)O)(O3)[C@@H](O)[C@H](O)[C@H]4O)ccc2Cl)cc1 (stereo partly drawn) [Example 29, (1R,2S,3S,4R,5S)-5-[4-chloro-3-[(4-ethoxyphenyl)-hydroxy-methyl]phenyl]-1-(1-hydroxyethyl)-6,8-dioxabicyclo[3.2.1]octane-2,3,4-triol]"
–,498 nM,"CCOc1ccc(Cc2cc([C@]34OC[C@](C(O)CNC)(O3)[C@@H](O)[C@H](O)[C@H]4O)ccc2Cl)cc1 (stereo partly drawn) [Example 11, (1R,2S,3S,4R,5S)-5-[4-chloro-3-[(4-ethoxyphenyl)methyl]phenyl]-1-[1-hydroxy-2-(methylamino)ethyl]-6,8-dioxabicyclo[3.2.1]octane-2,3,4-triol]"
